# According to US20060142359A1, “Cyclopenta[c]isoxazole-3-amines used as protective agents for materials” (priority 2002, published 2006):
# Where two headings read alike, the source gives them in different places.
# Key:
# Bacillus subtilis = experiment: MIC against bacteria on Landy agar (Use Example A); format: cell-based; details: 72 h, 3 days at 28° C., 60-70% relative atmospheric humidity, read-out: Minimum inhibitory concentrations Bacillus subtilis
# Protocol: (§1) A defined Landy Agar was admixed with active compounds according to the invention in concentrations of […]. The MIC was determined after 3 days of storage at 28° C. and 60-70% relative atmospheric humidity. The MIC is the lowest concentration of active compound at which there is no colonization by the microbial species used.
# Pseudomonas aeroginosa = experiment: MIC against bacteria on Landy agar (Use Example A); format: cell-based; details: 72 h, 3 days at 28° C., 60-70% relative atmospheric humidity, read-out: Minimum inhibitory concentrations Pseudomonas aeroginosa
# Protocol: as §1
# Aspergillus niger = experiment: MIC against fungi on malt extract agar (Use Example B); format: cell-based; details: 504 h, 3 weeks at 28° C., 60-70% relative atmospheric humidity, read-out: Minimum inhibitory concentrations Aspergillus niger
# Protocol: (§2) The MIC was determined after 3 weeks of storage at 28° C. and 60-70% relative atmospheric humidity. The MIC is the lowest concentration of active compound at which there is no colonization by the microbial species used.
# Chaetomium globosum = experiment: as above; format: cell-based; details: 504 h, 3 weeks at 28° C., 60-70% relative atmospheric humidity, read-out: Minimum inhibitory concentrations Chaetomium globosum
# Protocol: as §2
# Penicillium brevicaule = experiment: as above; format: cell-based; details: 504 h, 3 weeks at 28° C., 60-70% relative atmospheric humidity, read-out: Minimum inhibitory concentrations Penicillium brevicaule
# Protocol: as §2
# [1] = tested on: Pseudomonas aeruginosa NCIB 6749; experiment: MIC antibacterial action (Use Example D, analogous to A); format: cell-based; details: NCIB6749, 72 h
# Protocol: as §1
# Analogously to Use Example A, the minimum inhibitory concentrations (MIC) of active compounds according to the invention were determined. Both on chemically defined medium and on complex medium, the compounds tested had minimum inhibitory concentrations </=100 ppm against Pseudomonas aeruginosa NCIB 6749: […]
# Fusarium solani = experiment: MIC antifungal action (Use Example C, analogous to B); format: cell-based; details: analogously to Use Example B, read-out: minimum inhibitory concentrations (MIC) Fusarium solani
# Protocol: (§3) An agar which had been prepared using malt extract was admixed with active compounds according to the invention in concentrations of from 0.1 mg/l to 5000 mg/l. The MIC was determined after 3 weeks of storage at 28° C. and 60-70% relative atmospheric humidity. The MIC is the lowest concentration of active compound at which there is no colonization by the microbial species used. Analogously to Use Example B, the minimum inhibitory concentrations (MIC) of active compounds according to the invention were determined. Against fungi such as Fusarium solani, Geotrichum candidum and Rhodotorula rubra the compounds tested had minimum inhibitory concentrations of <500 ppm: […]
# Geotrichum candidum = experiment: as above; format: cell-based; details: analogously to Use Example B, read-out: minimum inhibitory concentrations (MIC) Geotrichum candidum
# Protocol: as §3
# Rhodotorula rubra = experiment: as above; format: cell-based; details: analogously to Use Example B, read-out: minimum inhibitory concentrations (MIC) Rhodotorula rubra
# Protocol: as §3
# [2] = chemically defined medium, read-out: MIC values (chem.def. medium)
# [3] = complex medium, read-out: MIC values (complex medium)
smiles,measurement,setting,value
"Nc1onc2c1CCC2 [Example 1, 5,6-dihydro-4H-cyclopenta[c]isoxazole-3-amine]",MIC,Bacillus subtilis,< 40 µg/mL
same,MIC,Pseudomonas aeroginosa,< 100 µg/mL
same,MIC,Aspergillus niger,< 100 µg/mL
same,MIC,Chaetomium globosum,< 100 µg/mL
same,MIC,Penicillium brevicaule,< 100 µg/mL
"CNc1onc2c1CCC2 [Example 2, N-methyl-5,6-dihydro-4H-cyclopenta[c]isoxazole-3-amine]",melting point,,52 °C
"CC(C)(C)C(=O)Nc1onc2c1CCC2 [Example 3, N-(5,6-dihydro-4H-cyclopenta[c]isoxazol-3-yl)-2,2-dimethylpropanamide]",melting point,,113 °C
"O=C(Nc1ccccc1)Nc1onc2c1CCC2 [Example 5, N-(5,6-dihydro-4H-cyclopenta[c]isoxazol-3-yl)-N′-phenylurea]",MIC,Bacillus subtilis,< 40 µg/mL
same,MIC,Pseudomonas aeroginosa,< 100 µg/mL
same,MIC,Aspergillus niger,200 µg/mL
same,MIC,Chaetomium globosum,100 µg/mL
same,MIC,Penicillium brevicaule,100 µg/mL
same,melting point,,202 °C
"CCCCNC(=S)Nc1onc2c1CCC2 [Example 6, N-butyl-N′-(5,6-dihydro-4H-cyclopenta[c]isoxazol-3-yl)thiourea]",melting point,,93 °C
"O=S(=O)(Nc1onc2c1CCC2)c1ccccc1 [Example 7, N-(5,6-dihydro-4H-cyclopenta[c]isoxazol-3-yl)benzenesulfonamide]",MIC,Bacillus subtilis,100 µg/mL
same,MIC,Pseudomonas aeroginosa,400 µg/mL
same,melting point,,132 °C
"C(=N/c1onc2c1CCC2)/c1ccccc1 [Example 8, N-(5,6-dihydro-4H-cyclopenta[c]isoxazol-3-yl)-N-(-phenylmethylidene)amine]",melting point,,166 °C
CC(C)C(=O)Nc1onc2c1CCC2 [Example 12],melting point,,116 °C
O=C(Nc1onc2c1CCC2)C(F)(F)F [Example 14],MIC,Bacillus subtilis,< 40 µg/mL
same,MIC,Pseudomonas aeroginosa,< 100 µg/mL
same,MIC,Aspergillus niger,100 µg/mL
same,MIC,Chaetomium globosum,100 µg/mL
same,MIC,Penicillium brevicaule,100 µg/mL
same,melting point,,118 °C
CCCC(=O)N(C(=O)CCC)c1onc2c1CCC2 [Example 15],MIC,Bacillus subtilis,100 µg/mL
same,MIC,Pseudomonas aeroginosa,< 100 µg/mL
same,MIC,Aspergillus niger,> 400 µg/mL
same,MIC,Chaetomium globosum,100 µg/mL
same,MIC,Penicillium brevicaule,200 µg/mL
CC(C)CC(=O)N(C(=O)CC(C)C)c1onc2c1CCC2 [Example 16],melting point,,35 °C
O=C(c1ccco1)N(C(=O)c1ccco1)c1onc2c1CCC2 [Example 17],melting point,,150 °C
O=C(Nc1onc2c1CCC2)NC1CCCCC1 [Example 19],MIC,Bacillus subtilis,100 µg/mL
same,MIC,Pseudomonas aeroginosa,400 µg/mL
same,melting point,,152 °C
Cc1ccc(NC(=O)Nc2onc3c2CCC3)cc1 [Example 20],melting point,,218 °C
O=C(Nc1ccc(Cl)cc1)Nc1onc2c1CCC2 [Example 21],melting point,,225 °C
Cc1ccc(NC(=O)Nc2onc3c2CCC3)c(C)c1 [Example 22],melting point,,230 °C
S=C(Nc1ccccc1)Nc1onc2c1CCC2 [Example 23],melting point,,146 °C
CC(C)S(=O)(=O)Nc1onc2c1CCC2 [Example 24],melting point,,91 °C
Cc1ccc(S(=O)(=O)Nc2onc3c2CCC3)cc1 [Example 25],melting point,,112 °C
CCCCC/C=N\c1onc2c1CCC2 [Example 27],melting point,,125 °C
Fc1ccc(/C=N\c2onc3c2CCC3)cc1 [Example 28],melting point,,> 260 °C
Clc1ccc(/C=N\c2onc3c2CCC3)cc1 [Example 29],melting point,,190 °C
Cc1ccc(/C=N\c2onc3c2CCC3)cc1 [Example 30],melting point,,238 °C
COc1ccc(/C=N\c2onc3c2CCC3)cc1 [Example 31],melting point,,249 °C
FC(F)(F)c1ccc(/C=N\c2onc3c2CCC3)cc1 [Example 32],melting point,,> 260 °C
C(=N/c1onc2c1CCC2)/c1ccccn1 [Example 33],melting point,,167 °C
CCCCC(CC)COC(=O)N(C(=O)OCC(CC)CCCC)c1onc2c1CCC2 (stereo not drawn) [Example 34],MIC,[1]; [2],100 µg/mL
same,MIC,[1]; [3],50 µg/mL
C=C(C)OC(=O)N(C(=O)OC(=C)C)c1onc2c1CCC2 [Example 35],MIC,[1]; [2],10 µg/mL
same,MIC,[1]; [3],10 µg/mL
O=C(OCC(Cl)(Cl)Cl)N(C(=O)OCC(Cl)(Cl)Cl)c1onc2c1CCC2 [Example 36],MIC,[1]; [2],10 µg/mL
same,MIC,[1]; [3],5 µg/mL
CC(C)COC(=O)N(C(=O)OCC(C)C)c1onc2c1CCC2 [Example 37],MIC,[1]; [2],10 µg/mL
same,MIC,[1]; [3],5 µg/mL
C=COC(=O)N(C(=O)OC=C)c1onc2c1CCC2 [Example 38],MIC,Fusarium solani,50 µg/mL
same,MIC,Geotrichum candidum,100 µg/mL
same,MIC,Rhodotorula rubra,100 µg/mL
same,MIC,[1]; [2],50 µg/mL
same,MIC,[1]; [3],20 µg/mL
O=C(OCc1ccccc1)N(C(=O)OCc1ccccc1)c1onc2c1CCC2 [Example 40],MIC,[1]; [2],20 µg/mL
same,MIC,[1]; [3],20 µg/mL
O=C(OCCCl)N(C(=O)OCCCl)c1onc2c1CCC2 [Example 41],MIC,Fusarium solani,200 µg/mL
same,MIC,Geotrichum candidum,500 µg/mL
same,MIC,Rhodotorula rubra,200 µg/mL
same,MIC,[1]; [2],10 µg/mL
same,MIC,[1]; [3],5 µg/mL
O=C(OCCBr)N(C(=O)OCCBr)c1onc2c1CCC2 [Example 42],MIC,Fusarium solani,200 µg/mL
same,MIC,Geotrichum candidum,500 µg/mL
same,MIC,Rhodotorula rubra,500 µg/mL
same,MIC,[1]; [2],10 µg/mL
same,MIC,[1]; [3],5 µg/mL
C=CCOC(=O)N(C(=O)OCC=C)c1onc2c1CCC2 [Example 43],MIC,[1]; [2],20 µg/mL
same,MIC,[1]; [3],10 µg/mL
